Assay results: patent US6960574B2, “Antagonists of RF-amide neuropeptides” (University of Florida, priority 2002, dated 2005)
Peptide text beside a SMILES is read from it. * marks the point of attachment. Dansyl = CN(C)c1cccc2c(S(=O)(=O)*)cccc12

What follows are molecules tested on receptor labeled by the radioiodinated analogue of 1 (4, [125I]-YLFQPQRF-NH2); neuropeptide FF receptor (assay: Competitive radioligand binding against 4 ([125I]Y8F-amide)). Details: mixture-based positional scanning; difference from averaged radioligand displacement of whole library (0); about 80 a.u. = 10-fold change in Ki.

Row | Relative Binding Index (RBI) [a.u.] | SMILES
1 | −50 | CSCC[C@H](NS(=O)(=O)c1cccc2c(N(C)C)cccc12)C(=O)N[C@@H](Cc1c[nH]cn1)C(=O)N[C@@H](CCCNC(=N)N)C(N)=O [Dansyl-MHR-amide] (Dansyl-Met-His-Arg-NH2)
2 | −37 | CC[C@H](C)[C@H](NC(=O)[C@H](CCSC)NS(=O)(=O)c1cccc2c(N(C)C)cccc12)C(=O)N[C@@H](CCCNC(=N)N)C(N)=O [Dansyl-MIR-amide] (Dansyl-Met-Ile-Arg-NH2)
3 | −46 | CSCC[C@H](NS(=O)(=O)c1cccc2c(N(C)C)cccc12)C(=O)N[C@@H](CCCCN)C(=O)N[C@@H](CCCNC(=N)N)C(N)=O [Dansyl-MKR-amide] (Dansyl-Met-Lys-Arg-NH2)
4 | −52 | CSCC[C@H](NS(=O)(=O)c1cccc2c(N(C)C)cccc12)C(=O)N[C@@H](CC(C)C)C(=O)N[C@@H](CCCNC(=N)N)C(N)=O [Dansyl-MLR-amide] (Dansyl-Met-Leu-Arg-NH2)
5 | −44 | CSCC[C@H](NC(=O)[C@H](CCSC)NS(=O)(=O)c1cccc2c(N(C)C)cccc12)C(=O)N[C@@H](CCCNC(=N)N)C(N)=O [Dansyl-MMR-amide] (Dansyl-Met-Met-Arg-NH2)
6 | −43 | CSCC[C@H](NS(=O)(=O)c1cccc2c(N(C)C)cccc12)C(=O)N[C@@H](CC(N)=O)C(=O)N[C@@H](CCCNC(=N)N)C(N)=O [Dansyl-MNR-amide]
7 | −41 | CSCC[C@H](NS(=O)(=O)c1cccc2c(N(C)C)cccc12)C(=O)N1CCC[C@H]1C(=O)N[C@@H](CCCNC(=N)N)C(N)=O [Dansyl-MPR-amide] (Dansyl-Met-Pro-Arg-NH2)
8 | −30 | CSCC[C@H](NS(=O)(=O)c1cccc2c(N(C)C)cccc12)C(=O)N[C@@H](CCC(N)=O)C(=O)N[C@@H](CCCNC(=N)N)C(N)=O [Dansyl-MQR-amide] (Dansyl-Met-Gln-Arg-NH2)
9 | −45 | CSCC[C@H](NS(=O)(=O)c1cccc2c(N(C)C)cccc12)C(=O)N[C@@H](CCCNC(=N)N)C(=O)N[C@@H](CCCNC(=N)N)C(N)=O [Dansyl-MRR-amide] (Dansyl-Met-Arg-Arg-NH2)
10 | −23 | CSCC[C@H](NS(=O)(=O)c1cccc2c(N(C)C)cccc12)C(=O)N[C@@H](CO)C(=O)N[C@@H](CCCNC(=N)N)C(N)=O [Dansyl-MSR-amide] (Dansyl-Met-Ser-Arg-NH2)
11 | −38 | CSCC[C@H](NS(=O)(=O)c1cccc2c(N(C)C)cccc12)C(=O)N[C@H](C(=O)N[C@@H](CCCNC(=N)N)C(N)=O)[C@@H](C)O [Dansyl-MTR-amide] (Dansyl-Met-Thr-Arg-NH2)
12 | −49 | CSCC[C@H](NS(=O)(=O)c1cccc2c(N(C)C)cccc12)C(=O)N[C@H](C(=O)N[C@@H](CCCNC(=N)N)C(N)=O)C(C)C [Dansyl-MVR-amide] (Dansyl-Met-Val-Arg-NH2)
13 | −35 | CSCC[C@H](NS(=O)(=O)c1cccc2c(N(C)C)cccc12)C(=O)N[C@@H](Cc1c[nH]c2ccccc12)C(=O)N[C@@H](CCCNC(=N)N)C(N)=O [Dansyl-MWR-amide] (Dansyl-Met-Trp-Arg-NH2)
14 | −45 | CSCC[C@H](NS(=O)(=O)c1cccc2c(N(C)C)cccc12)C(=O)N[C@@H](Cc1ccc(O)cc1)C(=O)N[C@@H](CCCNC(=N)N)C(N)=O [Dansyl-MYR-amide] (Dansyl-Met-Tyr-Arg-NH2)
15 | −36 | C[C@H](NC(=O)[C@H](CC(N)=O)NS(=O)(=O)c1cccc2c(N(C)C)cccc12)C(=O)N[C@@H](CCCNC(=N)N)C(N)=O [Dansyl-NAR-amide] (Dansyl-Asn-Ala-Arg-NH2)
16 | −5 | CN(C)c1cccc2c(S(=O)(=O)N[C@@H](CC(N)=O)C(=O)N[C@@H](CC(=O)O)C(=O)N[C@@H](CCCNC(=N)N)C(N)=O)cccc12 [Dansyl-NDR-amide] (Dansyl-Asn-Asp-Arg-NH2)
